Molecular target: T1, HCV RdRp NS5B d21BK (BK strain, 1b subtype) (Hepatitis C virus genotype 1b, UniProt P26663)
T1 construct: NS5B from the BK strain (1b subtype) is expressed in E. coli as a protein in which the 21 C-terminal amino acids are replaced; made in house; host or cells: E. coli
Assay: HCV polymerase (NS5B) RNA-dependent RNA polymerase inhibition, 33P-GTP filter assay
Format: biochemical
Conditions: in vitro; NS5B BK strain (1b subtype), 24 nM enzyme, 2 h at room temperature; read-out: HCV Polymerase Median IC50
Description: The ability of the compounds of the present invention to inhibit hepatitis C polymerase was established by the following experimental procedure:
NS5B from the BK strain (1b subtype) is expressed in E. coli as a protein in which the 21 C-terminal amino acids are replaced with a short linker and a hexahistidine tag (GSHHHHHH). The purified protein is mixed with radioactive nucleotides and allowed to replicate a heteropolymeric RNA substrate, primed by an endogenous short hairpin, resulting in an approximately 760 nt product. The radioactive product is captured on a filter and quantitated after removal of the unincorporated nucleotides.
(1) Compounds 10 μl at 10 μg/ml in 15% DMSO
Add 20 μl enzyme mix into each well of the assay plate. Incubate compound and enzyme at room temperature for 15 minutes.
(3) Template Mix—Prepare Ahead.
Spin down a tube of RNA (5 μg/tube stored in 75% ethanol and 0.3 M sodium acetate) in a microcentrifuge for 20 min. at 4° C. One tube is enough for 1 to 1½ plates. Remove as much ethanol from the tube as possible by inverting the tube. Be gentle, pellet RNA may not adhere to the tube. Vacuum dry the RNA. Resuspend the RNA by adding 1 ml of DEPC water, close the cap of the tube tightly. To dissolve RNA, incubate RNA solution on ice for ˜60 min. and gently vortex. Spin briefly to ensure all RNA solution is down to the bottom of the tube before opening cap. Gently transfer RNA solution into a 5 ml or larger tube. Add another 3 ml of DEPC water (total 4 ml of volume).
Add the following volumes of reagents.
Add 20 μl template mix per reaction (i.e. 20 ng of POF per reaction or ˜3 nM)
(4) Incubate reaction at room temperature (22-25° C.) for 2 hours.
(5) Stop reaction by adding 50 μl of 170 mM EDTA.
Final concentration of EDTA is 85 mM.
(6) Prewet filters of Millipore Multiscreen filter plate by adding 200 μl of 0.5 M sodium phosphate buffer, pH 7.0 into each well. Let stand at room temperature for 2-3 min.
(7) Place the Multiscreen filter plate onto a Millipore Manifold and turn on vacuum to allow buffer to flow through. Turn off vacuum. Transfer 80 μl of the reaction product into each well of the filter plate. Let stand for 2-3 min. Turn on vacuum to filter reaction product.
(8) Turn off vacuum. Add 200 μl of 0.5 M sodium phosphate buffer, pH 7.0 into each well to wash filter. Turn on vacuum.
Repeat step (8) three more times.
(9) Remove polypropylene bottom. Spot dry filter at the bottom with paper towel. Air dry filter plate on a bench for 1 hr. Add 40 μl Super Mix scintillant. Seal top of the plate with a tape. Place plate into a Packard carrier or MicroBeta carrier.
(10) Count plate using a Packard Topcount or MicroBeta counter. Program 10 for ^33P in Top count or ^33P program in micro-beta.
Percent inhibition is calculated after background subtraction as a percent reduction of activity relative to the positive control (average value of the plate excluding the negative controls).

T1 sequence (P26663 2420-2997, looked up, natural form): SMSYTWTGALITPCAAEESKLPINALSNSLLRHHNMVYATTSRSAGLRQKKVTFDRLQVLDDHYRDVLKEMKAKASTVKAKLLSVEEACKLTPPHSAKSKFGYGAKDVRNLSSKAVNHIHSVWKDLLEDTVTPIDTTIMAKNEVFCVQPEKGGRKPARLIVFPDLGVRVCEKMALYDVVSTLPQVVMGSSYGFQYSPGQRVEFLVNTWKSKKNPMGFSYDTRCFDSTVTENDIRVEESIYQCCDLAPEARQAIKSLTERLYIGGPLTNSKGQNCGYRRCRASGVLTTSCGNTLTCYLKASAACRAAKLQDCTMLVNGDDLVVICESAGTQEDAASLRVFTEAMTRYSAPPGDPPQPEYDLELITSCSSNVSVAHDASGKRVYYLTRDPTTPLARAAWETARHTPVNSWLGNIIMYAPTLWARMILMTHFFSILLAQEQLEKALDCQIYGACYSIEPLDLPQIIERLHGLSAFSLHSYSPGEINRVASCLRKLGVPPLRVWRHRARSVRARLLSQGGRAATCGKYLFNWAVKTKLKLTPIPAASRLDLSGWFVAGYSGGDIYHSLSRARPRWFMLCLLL

Row | Compound | IC50 [nM]
1 | Cc1cc(S(=O)(=O)N2CSC[C@H]2C(=O)O)c(N)cc1Cl [Example 54, (4R)-3-[(2-amino-4-chloro-5-methylphenyl)sulfonyl]-1,3-thiazolidine-4-carboxylic acid] | 4750
2 | N#C[C@@H]1CCCN1S(=O)(=O)c1cc(Cl)cc(Cl)c1O [Example 2, (2S)-1-[(3,5-dichloro-2-hydroxyphenyl)sulfonyl]pyrrolidine-2-carbonitrile] | 1040
3 | O=S(=O)(c1cc(Cl)cc(Cl)c1O)N1CCC[C@H]1CO [Example 21, 2,4-dichloro-6-{[(2S)-2-(hydroxymethyl)pyrrolidin-1-yl]sulfonyl}phenol] | 6100
4 | Cc1cc(N)c(S(=O)(=O)N2CCC[C@@H]2C(=O)O)cc1Cl [Example 17, 1-[(2-amino-5-chloro-4-methylphenyl)sulfonyl]-D-proline] | 4700
5 | Cc1cc(NC(=O)c2cccs2)c(S(=O)(=O)N2CCC[C@H]2C(=O)O)cc1Cl [Example 26, 1-({5-chloro-4-methyl-2-[(2-thienylcarbonyl)amino]phenyl}sulfonyl)-L-proline] | 6870
6 | O=C(O)[C@@H]1CSCN1S(=O)(=O)c1cc(Cl)cc(Cl)c1O [Example 47, (4R)-3-[(3,5-dichloro-2-hydroxyphenyl)sulfonyl]-1,3-thiazolidine-4-carboxylic acid] | 240
7 | O=C(O)[C@H]1C[C@H](O)CN1S(=O)(=O)c1cc(Cl)c(Cl)c(Cl)c1O [Example 15, (4S)-4-hydroxy-1-[(3,4,5-trichloro-2-hydroxyphenyl)sulfonyl]-D-proline] | 1220
8 | O=C(O)[C@@H]1CCCN1S(=O)(=O)c1cc(Cl)c(Cl)c(Cl)c1O [Example 4, 1-[(3,4,5-trichloro-2-hydroxyphenyl)sulfonyl]-L-proline] | 80
9 | Cc1cc(N)c(S(=O)(=O)N2CSC[C@@H]2C(=O)O)cc1Cl [Example 53, (4S)-3-[(2-amino-5-chloro-4-methylphenyl)sulfonyl]-1,3-thiazolidine-4-carboxylic acid] | 3050
10 | O=C(O)[C@H]1CSCN1S(=O)(=O)c1cc(Cl)cc(Cl)c1O [Example 51, (4S)-3-[(3,5-dichloro-2-hydroxyphenyl)sulfonyl]-1,3-thiazolidine-4-carboxylic acid] | 1710
11 | O=C(O)[C@H]1CCCN1S(=O)(=O)c1cc(Br)cc(Br)c1O [Example 27, 1-[(3,5-dibromo-2-hydroxyphenyl)sulfonyl]-D-proline] | 7000
12 | Cc1cc(S(=O)(=O)N2C[C@H](O)C[C@H]2C(=O)O)c(N)cc1Cl [Example 28, (4R)-1-[(2-amino-4-chloro-5-methylphenyl)sulfonyl]-4-hydroxy-L-proline] | 10000
13 | O=C(O)[C@@H]1CCCN1S(=O)(=O)c1cc(Cl)cc(Br)c1O [Example 5, 1-[(3-bromo-5-chloro-2-hydroxyphenyl)sulfonyl]-L-proline] | 260
14 | O=C(O)[C@H]1CCCCN1S(=O)(=O)c1cc(Cl)cc(Cl)c1O [Example 42, (2R)-1-[(3,5-dichloro-2-hydroxyphenyl)sulfonyl]piperidine-2-carboxylic acid] | 2010
15 | O=C(O)[C@@H]1CCCCN1S(=O)(=O)c1cc(Cl)cc(Cl)c1O [Example 43, (2S)-1-[(3,5-dichloro-2-hydroxyphenyl)sulfonyl]piperidine-2-carboxylic acid] | 7100
16 | O=C(O)[C@@H]1C[C@@H](O)CN1S(=O)(=O)c1cc(Br)cc(Br)c1O [Example 6, (4R)-1-[(3,5-dibromo-2-hydroxyphenyl)sulfonyl]-4-hydroxy-L-proline] | 460
17 | CC(=O)[C@@H]1CCCN1S(=O)(=O)c1cc(Cl)cc(Cl)c1O [Example 16, 1-{(2S)-1-[(3,5-dichloro-2-hydroxyphenyl)sulfonyl]pyrrolidin-2-yl}ethanone] | 2620
18 | O=C(c1ccccc1)[C@@H]1CCCN1S(=O)(=O)c1cc(Cl)cc(Cl)c1O [Example 30, {(2S)-1-[(3,5-dichloro-2-hydroxyphenyl)sulfonyl]pyrrolidin-2-yl}(phenyl)methanone] | 7520

Row | Compound | IC50 [nM]
19 | O=C(O)[C@@H]1CSCN1S(=O)(=O)c1cc(Cl)c(Cl)c(Cl)c1O [Example 45, (4R)-3-[(3,4,5-trichloro-2-hydroxyphenyl)sulfonyl]-1,3-thiazolidine-4-carboxylic acid] | 50
20 | O=C(O)[C@H]1CCCCN1S(=O)(=O)c1cc(Cl)cc(Br)c1O [Example 40, (2R)-1-[(3-bromo-5-chloro-2-hydroxyphenyl)sulfonyl]piperidine-2-carboxylic acid] | 1160
21 | Cc1cc(S(=O)(=O)N2CSC[C@@H]2C(=O)O)c(N)cc1Cl [Example 55, (4S)-3-[(2-amino-4-chloro-5-methylphenyl)sulfonyl]-1,3-thiazolidine-4-carboxylic acid] | 7500
22 | Cc1cc(N)c(S(=O)(=O)N2CCCC[C@@H]2C(=O)O)cc1Cl [Example 44, (2R)-1-[(2-amino-5-chloro-4-methylphenyl)sulfonyl]piperidine-2-carboxylic acid] | 7900
23 | Cc1cc(N)c(S(=O)(=O)N2CSC[C@H]2C(=O)O)cc1Cl [Example 58, (4R)-3-[(2-amino-5-chloro-4-methylphenyl)sulfonyl]-1,3-thiazolidine-4-carboxylic acid] | 1980
24 | O=C(O)[C@@H]1C[C@@H](O)CN1S(=O)(=O)c1cc(Cl)cc(Br)c1O [Example 7, (4R)-1-[(3-bromo-5-chloro-2-hydroxyphenyl)sulfonyl]-4-hydroxy-L-proline] | 470
25 | O=C(O)[C@H]1CCCN1S(=O)(=O)c1cc(Cl)c(Cl)c(Cl)c1O [Example 13, 1-[(3,4,5-trichloro-2-hydroxyphenyl)sulfonyl]-D-proline] | 1170
26 | Cc1cc(NC(=O)C2CC2)c(S(=O)(=O)N2CCC[C@H]2C(=O)O)cc1Cl [Example 33, 1-({5-chloro-2-[(cyclopropylcarbonyl)amino]-4-methylphenyl}sulfonyl)-L-proline] | 8680
27 | O=C(O)[C@@H]1CCCCN1S(=O)(=O)c1cc(Cl)c(Cl)c(Cl)c1O [Example 37, (2S)-1-[(3,4,5-trichloro-2-hydroxyphenyl)sulfonyl]piperidine-2-carboxylic acid] | 80
28 | O=C(O)[C@@H]1C[C@@H](O)CN1S(=O)(=O)c1cc(F)cc(Cl)c1O [Example 18, (4R)-1-[(3-chloro-5-fluoro-2-hydroxyphenyl)sulfonyl]-4-hydroxy-L-proline] | 3280
29 | O=C(O)[C@@H]1CSCN1S(=O)(=O)c1cc(F)cc(Cl)c1O [Example 49, (4R)-3-[(3-chloro-5-fluoro-2-hydroxyphenyl)sulfonyl]-1,3-thiazolidine-4-carboxylic acid] | 2130
30 | O=S(=O)(c1cc(Cl)cc(Cl)c1O)N1CCC[C@H]1c1nn[nH]n1 [Example 1, 2,4-dichloro-6-{[(2S)-2-(2H-tetrazol-5-yl)pyrrolidin-1-yl]sulfonyl}phenol] | 560
31 | Cc1cc(N)c(S(=O)(=O)N2CCC[C@H]2C(=O)O)cc1Cl [Example 20, 1-[(2-amino-5-chloro-4-methylphenyl)sulfonyl]-L-proline] | 5950
32 | O=C(O)[C@H]1CSCN1S(=O)(=O)c1cc(F)cc(Cl)c1O [Example 57, (4S)-3-[(3-chloro-5-fluoro-2-hydroxyphenyl)sulfonyl]-1,3-thiazolidine-4-carboxylic acid] | 14400
33 | O=C(O)[C@@H]1CCCN1S(=O)(=O)c1c(Cl)cc(Cl)cc1Cl [Example 32, 1-[(2,4,6-trichlorophenyl)sulfonyl]-L-proline] | 9600
34 | O=C(O)[C@H]1CCCCN1S(=O)(=O)c1cc(Cl)c(Cl)c(Cl)c1O [Example 38, (2R)-1-[(3,4,5-trichloro-2-hydroxyphenyl)sulfonyl]piperidine-2-carboxylic acid] | 380
35 | O=C(O)[C@@H]1CCCN1S(=O)(=O)c1cc(F)cc(Cl)c1O [Example 14, 1-[(3-chloro-5-fluoro-2-hydroxyphenyl)sulfonyl]-L-proline] | 2050
